10 compounds from ChEMBL document CHEMBL5335783, “Inhibitory activity of catecholic phosphonic and phosphinic acids against Helicobacter pylori ureolysis” (Eur J Med Chem, 2023) can be followed below.

pIC50, pKi: −log10 of the molar value. Activity calls are given as the source filed them. The rule behind the calls is not given here.

Data set [1] is described as follows: Inhibition of -ureolysis in live Helicobacter pylori Tx30a (ATCC 51932) in presence of urea by absorbance based analysis. It is filed as functional.
Data set [2] in a line: Inhibition of Sporosarcina pasteurii CCM 2056 native urease using urea as substrate preincubated for 1 hr followed by substrate addition and measured for 1.5 hrs by colorimetric method.
The subject of data set [3] is HEK293. Briefly: Cytotoxicity against HEK293 cells assessed as reduction in cell proliferation at 10 uM incubated for 72 hrs by SRB assay relative to control. Particulars: human, hek293, 72 h. Type of data set: toxicity, cell-based. Also noted: scale not given: the % may be the effect or the level left. Background: In SRB staining, fixed cells bind dye roughly in proportion to their protein.

The nature of data set [4]: Cytotoxicity against HEK293 cells assessed as reduction in cell proliferation at 0.1 uM incubated for 72 hrs by SRB assay relative to control. Particulars: human, read-out: Activity. Type of data set: toxicity, cell-based.
A short description of data set [5]: Cytotoxicity against mouse Balb/3T3-L1 cells assessed as reduction in cell proliferation at 3.14 uM incubated for 72 hrs by SRB assay relative to control. Type of data set: toxicity, cell-based. Also on record: scale not given: the % may be the effect or the level left. Particulars: balb/3t3-l1, 72 h.
Data set [6] is described as follows: Cytotoxicity against mouse Balb/3T3-L1 cells assessed as reduction in cell proliferation at 1 uM incubated for 72 hrs by SRB assay relative to control. Type of data set: toxicity, cell-based. Particulars: read-out: Activity.
In data set [7] the test system is HEK293. Put plainly: Cytotoxicity against HEK293 cells assessed as reduction in cell proliferation at 0.31 uM incubated for 72 hrs by SRB assay relative to control. Particulars: human, hek293, 72 h. Type of data set: toxicity, cell-based. Also on record: scale not given: the % may be the effect or the level left.
Data set [8] in a line: Cytotoxicity against mouse Balb/3T3-L1 cells assessed as reduction in cell proliferation at 0.1 uM incubated for 72 hrs by SRB assay relative to control. Type of data set: toxicity, cell-based. Also noted: scale not given: the % may be the effect or the level left. Particulars: balb/3t3-l1, 72 h.
Data set [9] in a line: Cytotoxicity against mouse Balb/3T3-L1 cells assessed as reduction in cell proliferation at 0.31 uM incubated for 72 hrs by SRB assay relative to control. Type of data set: toxicity, cell-based. Particulars: read-out: Activity.
Data set [10] in a line: Cytotoxicity against mouse Balb/3T3-L1 cells assessed as reduction in cell proliferation at 10 uM incubated for 72 hrs by SRB assay relative to control. It is filed as toxicity, cell-based. Particulars: read-out: Activity.
In data set [11] the test system is Sporosarcina pasteurii. Briefly: Inhibition of Sporosarcina pasteurii CCM 2056 native urease using urea as substrate in presence of DTT measured for 1.5 hrs by colorimetric method.
Data set [12] is described as follows: Cytotoxicity against HEK293 cells assessed as reduction in cell proliferation at 1 uM incubated for 72 hrs by SRB assay relative to control. Type of data set: toxicity, cell-based. Particulars: human, read-out: Activity.
Data set [13] can be described thus: Cytotoxicity against HEK293 cells assessed as reduction in cell proliferation at 100 uM incubated for 72 hrs by SRB assay relative to control. It is filed as toxicity, cell-based. Particulars: human, read-out: Activity.
Data set [14] is described as follows: Inhibition of Sporosarcina pasteurii CCM 2056 native urease using urea as substrate measured for 1.5 hrs by colorimetric method.
A short description of data set [15]: Cytotoxicity against HEK293 cells assessed as reduction in cell proliferation at 3.14 uM incubated for 72 hrs by SRB assay relative to control. Type of data set: toxicity, cell-based. Particulars: human, read-out: Activity.
A short description of data set [16]: Cytotoxicity against HEK293 cells assessed as reduction in cell proliferation at 31.4 uM incubated for 72 hrs by SRB assay relative to control. It is filed as toxicity, cell-based. Particulars: human, read-out: Activity.
The nature of data set [17]: Cytotoxicity against mouse Balb/3T3-L1 cells assessed as reduction in cell proliferation at 100 uM incubated for 72 hrs by SRB assay relative to control. Type of data set: toxicity, cell-based. Particulars: read-out: Activity.
Data set [18] in a line: Cytotoxicity against mouse Balb/3T3-L1 cells assessed as reduction in cell proliferation at 31.4 uM incubated for 72 hrs by SRB assay relative to control. Particulars: read-out: Activity. It is filed as toxicity, cell-based.
The test system of data set [19] is Sporosarcina pasteurii. Put plainly: Inhibition of Sporosarcina pasteurii CCM 2056 native urease using urea as substrate by colorimetric method. Particulars: TDE = time-dependent effect.
Data set [20] is described as follows: Stability of compound in methanol assessed as rate of hydrolysis measured after 3 days by NMR analysis. Type of data set: physicochemical. Particulars: time 3 day, read-out: Activity.
Data set [21] deals with Sporosarcina pasteurii. Briefly: Competitive inhibition of Sporosarcina pasteurii CCM 2056 native urease using urea as substrate in presence of DTT measured for 1.5 hrs by colorimetric method.

For the compound `CC(=O)NO` [ACETOHYDROXAMIC ACID], the negative-log IC50 (pIC50) in data set [1] is 3.81. The same compound gave a pKi in data set [2] of 5.48.
Turning to `O=P(O)(O)CCc1ccc(O)c(O)c1`, the Activity in the data set on HEK293 [3] was 8.4%; in data set [5] it was 10.6%; in the data set with HEK293 [7] it was -3.4%; in data set [8], 0.4%. In addition, the inhibition at 72 h, 0.1 µM in data set [4] came out at 2.2%. The figures for the inhibition at 72 h, 1 µM in [6] and in data set [12] were 15% and -0.9%, respectively. In addition, the pIC50 in data set [1] is 4.58. For the same compound, in data set [9], the inhibition at 72 h, 0.31 µM came to 5.9%. Further, the inhibition at 72 h, 10 µM in data set [10] amounted to 12.7%. Further, the inhibition result in the data set with Sporosarcina pasteurii [11] is “Active”. Also, the inhibition at 72 h, 100 µM in data set [13] worked out at 15.7%; in [17], 17.8%. The pKi in [14] was 4.75; in data set [2], 5.04. Besides, in data set [15], the inhibition at 72 h, 3.14 µM was found to be 0.1%. Moreover, the inhibition at 72 h, 31.4 µM in data set [16] turned out to be 15.6%; in [18], 18.3%.
For `O=C(O)C(CP(=O)(O)O)c1ccc(O)c(O)c1` (racemic), the Activity in the data set with HEK293 [3] was -3%; in data set [5] it was 20.1%; in the data set with HEK293 [7] it was -1.6%; in data set [8], 6.7%. For the same compound, the inhibition at 72 h, 0.1 µM in data set [4] was 1.4%. The inhibition at 72 h, 1 µM in [6] is 18.6%; in [12], -0.8%. For the same compound, the pIC50 in data set [1] was 6.12. For the same compound, the inhibition at 72 h, 0.31 µM in [9] was found to be 15.6%. Moreover, in data set [10], the inhibition at 72 h, 10 µM was 22.1%. Moreover, in the data set with Sporosarcina pasteurii [11], the inhibition entry is “inactive”. The inhibition at 72 h, 100 µM in [13] amounted to 7.8%; in [17], 34.9%. Further, the pKi in [14] is 3.40; in data set [2], 5.63. Further, the inhibition at 72 h, 3.14 µM in data set [15] was -0.2%. Further, the inhibition at 72 h, 31.4 µM in [16] is -3%; in data set [18] it was 24.9%. Besides, the inhibition result with Sporosarcina pasteurii [19] is “Tde”.
Regarding `COC(=O)C(CP(=O)(O)CC(C(=O)OC)c1ccc(O)c(O)c1)c1ccc(O)c(O)c1` (mixture of isomers), the pIC50 in [1] was 3.97. In the data set on Sporosarcina pasteurii [11], the inhibition entry is “inactive”. In addition, the results for the pKi in data set [14] and in data set [2] were 3.65 and 5.12, respectively.
In the case of `O=C(O)C(C[PH](=O)O)c1ccc(O)c(O)c1` (racemic), the pIC50 in data set [1] is 4.98. Also, in the data set on Sporosarcina pasteurii [11], the inhibition result was “inactive”. Moreover, the values for the pKi in data set [14] and in data set [2] were 4.10 and 4.23, respectively. Further, the inhibition entry in the data set on Sporosarcina pasteurii [19] is “Tde”.
Turning to `COC(=O)C(CP(=O)(O)O)c1ccc(O)c(O)c1` (racemic), in [1], the pIC50 was 4.50. The degraded at 72 h in [20] was less than 5%. The inhibition result in the data set with Sporosarcina pasteurii [11] was “Active”. The figures for the pKi in data set [14] and in data set [2] were 3.97 and 4.11, respectively.
Taken in the same sequence, the figures for `COC(=O)CCP(=O)(O)CC(C(=O)OC)c1ccc(O)c(O)c1` (stereo not given) were 3.39, less than 5%, “Active”, 3.53 and 3.64.
Turning to `O=C(O)C(CP(=O)(O)O)c1cc(O)c(O)cc1Br` (racemic), the inhibition entry with Sporosarcina pasteurii [21] and in the data set with Sporosarcina pasteurii [11] was “Active” each time. In addition, the pIC50 in data set [1] is 4.30. Besides, the results for the pKi in data set [14] and in data set [2] were 4.38 and 4.46, respectively.
For the compound `O=C(O)C(CP(=O)(O)CC(C(=O)O)c1ccc(O)c(O)c1)c1ccc(O)c(O)c1` (mixture of isomers), the pIC50 in data set [1] was 4.88. The inhibition result in the data set with Sporosarcina pasteurii [11] is “inactive”. Besides, the pKi was 4.80 in data set [14] and 5.17 in data set [2].
Turning to `O=C(O)CCP(=O)(O)CC(C(=O)O)c1ccc(O)c(O)c1` (racemic), the Activity was found to be 16.3% in the data set on HEK293 [3], 17.5% in [5], 8.5% in the data set with HEK293 [7] and 8% in [8]. For the same compound, in data set [4], the inhibition at 72 h, 0.1 µM is 13.5%. For the same compound, the inhibition at 72 h, 1 µM in data set [6] worked out at 13.4%; in [12], 8.1%. The pIC50 in data set [1] was 5.03. In data set [9], the inhibition at 72 h, 0.31 µM turned out to be 4.9%. Besides, the inhibition at 72 h, 10 µM in data set [10] was 17.4%. The inhibition entry in the data set on Sporosarcina pasteurii [11] was “inactive”. The inhibition at 72 h, 100 µM came to 7.7% in data set [13] and 33.2% in [17]. In addition, the pKi in [14] is 3.53; in [2] it was 5.21. Also, the inhibition at 72 h, 3.14 µM in data set [15] was determined as 10.1%. The inhibition at 72 h, 31.4 µM in [16] was 10.4%; in data set [18] it was 25.8%.

What is called pIC50 is the negative decadic logarithm of the IC50, by convention in mol/L. The pKi is the Ki on a negative log10 scale, so that one unit is a factor of ten.
